The text below walks through data of PubChem BioAssay (NCI).

Among the test systems are SNB-75 CNS; U251 CNS; CAKI-1 renal; K-562 leukemia; OVCAR-5 ovarian; MCF7 breast; HS 578T breast; COLO 205 colon; UACC-62 melanoma; SR leukemia.
Test in all cases: inhibition of tumour cell growth, NCI panel, 48 h

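1) Cells in 96-well plates. 2) Compound, 48 h, 5 concentrations. 3) Linear interpolation between surrounding doses. 4) Unreached endpoint = highest concentration. TGI marks complete inhibition of growth.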 A value given as a limit tells only on which side of the number the result lay.

Turning to `CC(=O)OC(Cc1ccc2ccccc2n1)(C(F)(F)F)C(F)(F)F`, the TGI was 13.5 µM in the assay on SNB-75 CNS; 18.2 µM in the assay with U251 CNS; 2.96 µM in the assay with CAKI-1 renal; greater than 100 µM with K-562 leukemia; 10.2 µM with OVCAR-5 ovarian; 0.559 µM in the assay on MCF7 breast. Besides, the TGI came to 6.58 µM with HS 578T breast, 1.98 µM with COLO 205 colon and 2.93 µM in the assay on UACC-62 melanoma.
Take `COc1cc2cc(C(=O)N3CC(CCl)c4c3cc(NC(=O)OCc3ccc([N+](=O)[O-])cc3)c3ccccc43)[nH]c2c(OC)c1OC` (configuration not stated): the TGI in the assay on SNB-75 CNS was 67.3 µM; in the assay on U251 CNS it was greater than 100 µM; in the assay with CAKI-1 renal, greater than 39.4 µM; in the assay on OVCAR-5 ovarian it was greater than 100 µM; in the assay on MCF7 breast, greater than 100 µM; with HS 578T breast it was greater than 100 µM. Moreover, the TGI in the assay with COLO 205 colon and with UACC-62 melanoma was greater than 100 µM in each case.
Consider `Cc1cn(CCCCCCC2=NCCCN2)c(=O)[nH]c1=O`, for which the TGI with SNB-75 CNS, in the assay with U251 CNS, with CAKI-1 renal, with K-562 leukemia, in the assay with OVCAR-5 ovarian and in the assay with MCF7 breast was greater than 100 µM throughout. The TGI with HS 578T breast, with COLO 205 colon and in the assay with UACC-62 melanoma was greater than 100 µM throughout.
As to `COC(=O)CCc1ccc2c(c1)C(=O)CC2`, the TGI in the assay on SR leukemia was greater than 100 µM; in the assay on SNB-75 CNS, 99.9 µM; in the assay with U251 CNS it was greater than 100 µM; in the assay on K-562 leukemia it was greater than 100 µM; with OVCAR-5 ovarian, greater than 100 µM; in the assay with MCF7 breast, greater than 100 µM. In the assay with HS 578T breast, this compound came in with a TGI greater than 100 µM.
In the case of `CCOP(=O)(OCC)C(c1ccccc1)N(C(=O)NC(F)(F)F)c1cccc(F)c1` (configuration not stated), the TGI in the assay on SR leukemia, with SNB-75 CNS, in the assay with U251 CNS, in the assay on CAKI-1 renal, in the assay with K-562 leukemia and in the assay on MCF7 breast was greater than 100 µM each time. For the same compound, the TGI in the assay on HS 578T breast and in the assay on COLO 205 colon was greater than 100 µM throughout.
As to `O=c1sc2c(s1)-c1sc(=O)sc1SS2`, the TGI is greater than 100 µM in the assay with SNB-75 CNS; greater than 31.6 µM in the assay with U251 CNS; greater than 100 µM in the assay on CAKI-1 renal; greater than 100 µM with K-562 leukemia; greater than 75.3 µM in the assay with OVCAR-5 ovarian; greater than 100 µM in the assay with MCF7 breast. In addition, the TGI was greater than 100 µM with HS 578T breast, greater than 65 µM in the assay with COLO 205 colon and greater than 100 µM in the assay on UACC-62 melanoma.
With `O=c1[nH]c(=O)n(C2CC(O)C(CO)O2)cc1NN=NCCCc1ccccc1` (configuration not stated), the TGI with SR leukemia, in the assay with CAKI-1 renal, with OVCAR-5 ovarian, in the assay on MCF7 breast, in the assay with HS 578T breast and in the assay on COLO 205 colon was greater than 100 µM each time. In addition, the TGI in the assay on UACC-62 melanoma was greater than 100 µM.
Take `CCCCCc1nnc(NS(=O)(=O)c2ccc(NC(=O)OCC(C)C)cc2)s1`: the TGI in the assay with SR leukemia is 36.9 µM; in the assay on U251 CNS it was greater than 100 µM; in the assay with CAKI-1 renal, greater than 100 µM; in the assay with K-562 leukemia it was 60.9 µM; with OVCAR-5 ovarian, greater than 100 µM; in the assay with MCF7 breast it was greater than 100 µM. Besides, the TGI with HS 578T breast was greater than 100 µM; in the assay with COLO 205 colon, 41.6 µM; in the assay with UACC-62 melanoma it was greater than 100 µM.
With `O=C(c1ccccc1)n1cc(-c2ccccc2)c2c(=O)[nH]cnc21`, the TGI in the assay with SNB-75 CNS, with U251 CNS, in the assay with CAKI-1 renal, in the assay on OVCAR-5 ovarian, in the assay with MCF7 breast and with HS 578T breast was greater than 100 µM throughout. Moreover, the TGI in the assay on COLO 205 colon and in the assay on UACC-62 melanoma was greater than 100 µM throughout.
Regarding `COc1cc(C2=NNC(=O)c3ccccc3N2c2nc(-c3cccs3)nc3ccc(Br)cc23)cc(OC)c1OC`, the TGI with SNB-75 CNS was greater than 100 µM; in the assay on U251 CNS, 92.9 µM; in the assay with CAKI-1 renal, 73.1 µM; in the assay with OVCAR-5 ovarian it was greater than 100 µM; with MCF7 breast it was 7.28 µM; in the assay on HS 578T breast, 44.1 µM. Moreover, the TGI in the assay on COLO 205 colon and in the assay on UACC-62 melanoma was greater than 100 µM throughout.
As for `COc1ccc(NC(=O)CC(=O)n2nc(C)c(N=Nc3cccc(C)c3)c2C)cc1`, the TGI with SR leukemia, in the assay on SNB-75 CNS, in the assay on U251 CNS, in the assay with CAKI-1 renal, in the assay on OVCAR-5 ovarian and with MCF7 breast was greater than 100 µM each time. For the same compound, the TGI in the assay with HS 578T breast, in the assay with COLO 205 colon and in the assay on UACC-62 melanoma was greater than 100 µM throughout.
As to `CN(C)c1ccc(C=C2C(=O)N(c3ccccc3)N(c3ccccc3)C2=O)cc1`, the TGI in the assay with SR leukemia, with SNB-75 CNS, with U251 CNS, in the assay on K-562 leukemia, in the assay on OVCAR-5 ovarian and with MCF7 breast was greater than 100 µM each time. Moreover, the TGI in the assay with HS 578T breast, in the assay with COLO 205 colon and with UACC-62 melanoma was greater than 100 µM throughout.
For `COc1cc(O)c2c(=O)c3c(C)cccc3n(C)c2c1`, the TGI in the assay on SNB-75 CNS, in the assay on U251 CNS, in the assay on CAKI-1 renal, in the assay with K-562 leukemia, in the assay with OVCAR-5 ovarian and with MCF7 breast was greater than 10 µM throughout. Also, the TGI in the assay with HS 578T breast, in the assay on COLO 205 colon and in the assay with UACC-62 melanoma was greater than 10 µM each time.
Take `O=C(CCCCCCCCC(=O)N1C(=O)CC(=O)N(c2ccccc2)C1=S)N1C(=O)CC(=O)N(c2ccccc2)C1=S`: the TGI in the assay with SR leukemia, in the assay on SNB-75 CNS, in the assay on U251 CNS, with CAKI-1 renal, in the assay on OVCAR-5 ovarian and in the assay with MCF7 breast was greater than 100 µM each time. In addition, the TGI in the assay on HS 578T breast, with COLO 205 colon and with UACC-62 melanoma was greater than 100 µM throughout.
Consider `C(=Nc1ccc(-c2nc3ccccc3[nH]2)cc1)c1ccc[nH]1`, for which the TGI in the assay with SR leukemia, in the assay with SNB-75 CNS, in the assay with CAKI-1 renal, with K-562 leukemia, in the assay with OVCAR-5 ovarian and with MCF7 breast was greater than 100 µM in each case. Further, the TGI with HS 578T breast, in the assay on COLO 205 colon and in the assay with UACC-62 melanoma was greater than 100 µM in each case.
